Experimental data published in patent publication US20220249463A1, “METHODS OF ALTERING CARDIAC REMODELING USING COMPOUNDS THAT PROMOTE GLUCOSE OXIDATION” (IMBRIA PHARMACEUTICALS, INC., priority 2019, published 2022).
Where “and” joins values, the source holds several entries; their conditions need not be identical. Equal values may be shown once.

How the values were obtained:
TAC mice [1] = experiment: TAC mice: cardiac fibrosis, Masson's trichrome; type: in vivo; details: end of 6-week experiment
[2] = test system: isolated hearts after ischemia-reperfusion; experiment: Ischemia-reperfusion (IR): coronary flow; type: in vivo, mice; details: TMZ 20 μM, TNF 2 μM each, TNS 20 μM each, individual hearts, MEAN = group mean; for CF20: coronary flow at 20 minutes; for CF170: coronary flow at 170 minutes, after IR; for CF170/CF20: ratio of flow at 170 minutes to flow at 20 minutes
Experimental: FIG. 38 is a schematic of the ischemia-reperfusion (IR) method used to analyze the effects of selected compositions on coronary flow, cardiac function, and infarct size. […] At 20 minutes, ischemia was induced, and coronary flow was analyzed. At 50 minutes, reperfusion was initiated to restore blood flow. At 170 minutes, coronary flow and cardiac function was analyzed, and then the hearts were preserved, sectioned, and infarct size was measured by triphenyltetrazolium chloride (TTC) staining. FIG. 39 is a graph of coronary flow of after IR.

[3] = test system: isolated hearts after ischemia-reperfusion; experiment: Ischemia-reperfusion (IR): infarct size by TTC staining; type: in vivo, mice
Experimental: FIG. 38 is a schematic of the ischemia-reperfusion (IR) method used to analyze the effects of selected compositions on coronary flow, cardiac function, and infarct size. […] At 20 minutes, ischemia was induced, and coronary flow was analyzed. At 50 minutes, reperfusion was initiated to restore blood flow. At 170 minutes, coronary flow and cardiac function was analyzed, and then the hearts were preserved, sectioned, and infarct size was measured by triphenyltetrazolium chloride (TTC) staining. […] FIG. 42 is graph of infarct size after IR.

TAC mice [4] = experiment: TAC mice: left ventricular pressure with Mikro-tip catheter; type: in vivo; details: end of 6-week treatment; for left ventricular developed pressure (LVDP): TMZ 6, NA 2.4, CV-8814 7.5, CV-8972 10 mg/kg/day
TAC mice [5] = experiment: TAC mice: echocardiography; type: in vivo
TAC mice [6] = experiment: TAC mice, six weeks treatment: heart weight and heart weight/body weight; type: in vivo; details: 6 weeks; for cardiac mass: TMZ 6, CV-8814 7.5, CV-8972 10 mg/kg/day, osmotic minipump
[7] = test system: isolated hearts after ischemia-reperfusion; experiment: Ischemia-reperfusion (IR): cardiac function (left ventricular pressure); design: species or system mice; details: for left ventricular developed pressure (LVDP), Mean: Table 6 group mean; for HR / LVDP / LVDPxHR / LVEDP / LVESP: individual hearts, MEAN = group mean
Experimental: FIG. 38 is a schematic of the ischemia-reperfusion (IR) method used to analyze the effects of selected compositions on coronary flow, cardiac function, and infarct size. […] At 20 minutes, ischemia was induced, and coronary flow was analyzed. At 50 minutes, reperfusion was initiated to restore blood flow. At 170 minutes, coronary flow and cardiac function was analyzed, and then the hearts were preserved, sectioned, and infarct size was measured by triphenyltetrazolium chloride (TTC) staining. FIG. 40 is graph of left ventricular developed pressure (LVDP) after IR.

[8] = test system: Glutamate, NMDA, Phencyclidine; type: binding, rat; details: 10 μM CV-8814
Phosphodiesterase PDE3 = type: biochemical, human; details: 10 μM CV-8814
Nicotinic Acetylcholine = type: binding, human; details: 10 μM CV-8814
Glutamate, AMPA = type: binding, rat; details: 10 μM CV-8814
[9] = test system: Glycine, Strychnine-Sensitive; type: binding, rat; details: 10 μM CV-8814
Glutamate, NMDA, Agonism = type: binding, rat; details: 10 μM CV-8814
Transporter, GABA = type: binding, rat; details: 10 μM CV-8814
[10] = test system: Calcium Channel L-Type, Dihydropyridine; type: binding, rat; details: 10 μM CV-8814
Phosphodiesterase PDE4 = type: biochemical, human; details: 10 μM CV-8814
Potassium Channel [KATP] = Potassium Channel [KATP] (Cricetus cricetus, UniProt Q09427); type: binding, hamster; details: 10 μM CV-8814
Transporter, Adenosine = type: binding, guinea pig; details: 10 μM CV-8814
[11] = test system: Glutamate, NMDA, Polyamine; type: binding, rat; details: 10 μM CV-8814
[12] = test system: GABAA, Chloride Channel, TBOB; type: binding, rat; details: 10 μM CV-8814
[13] = test system: ATPase, Na^+/K^+, pig heart; type: biochemical; details: 10 μM CV-8814
[14] = test system: GABAA, Ro-15-1788, Hippocampus; type: binding, rat; details: 10 μM CV-8814
[15] = test system: GABAA, Flunitrazepam, Central; type: binding, rat; details: 10 μM CV-8814
[16] = test system: Protein Serine/Threonine Kinase, PKC, Non-selective; type: biochemical, rat; details: 10 μM CV-8814
Sodium Channel, Site 2 = type: binding, rat; details: 10 μM CV-8814
Glutamate, Kainate = type: binding, rat; details: 10 μM CV-8814
[17] = test system: Calcium Channel L-Type, Benzothiazepine; type: binding, rat; details: 10 μM CV-8814
[18] = test system: Calcium Channel L-Type, Phenylalkylamine; type: binding, rat; details: 10 μM CV-8814
[19] = TMZ 20 μM, TNF 2 μM each, TNS 20 μM each
[20] = TMZ 6, NA 2.4, CV-8814 7.5, CV-8972 10 mg/kg/day

Sequence of Potassium Channel [KATP] (Q09427 whole entry): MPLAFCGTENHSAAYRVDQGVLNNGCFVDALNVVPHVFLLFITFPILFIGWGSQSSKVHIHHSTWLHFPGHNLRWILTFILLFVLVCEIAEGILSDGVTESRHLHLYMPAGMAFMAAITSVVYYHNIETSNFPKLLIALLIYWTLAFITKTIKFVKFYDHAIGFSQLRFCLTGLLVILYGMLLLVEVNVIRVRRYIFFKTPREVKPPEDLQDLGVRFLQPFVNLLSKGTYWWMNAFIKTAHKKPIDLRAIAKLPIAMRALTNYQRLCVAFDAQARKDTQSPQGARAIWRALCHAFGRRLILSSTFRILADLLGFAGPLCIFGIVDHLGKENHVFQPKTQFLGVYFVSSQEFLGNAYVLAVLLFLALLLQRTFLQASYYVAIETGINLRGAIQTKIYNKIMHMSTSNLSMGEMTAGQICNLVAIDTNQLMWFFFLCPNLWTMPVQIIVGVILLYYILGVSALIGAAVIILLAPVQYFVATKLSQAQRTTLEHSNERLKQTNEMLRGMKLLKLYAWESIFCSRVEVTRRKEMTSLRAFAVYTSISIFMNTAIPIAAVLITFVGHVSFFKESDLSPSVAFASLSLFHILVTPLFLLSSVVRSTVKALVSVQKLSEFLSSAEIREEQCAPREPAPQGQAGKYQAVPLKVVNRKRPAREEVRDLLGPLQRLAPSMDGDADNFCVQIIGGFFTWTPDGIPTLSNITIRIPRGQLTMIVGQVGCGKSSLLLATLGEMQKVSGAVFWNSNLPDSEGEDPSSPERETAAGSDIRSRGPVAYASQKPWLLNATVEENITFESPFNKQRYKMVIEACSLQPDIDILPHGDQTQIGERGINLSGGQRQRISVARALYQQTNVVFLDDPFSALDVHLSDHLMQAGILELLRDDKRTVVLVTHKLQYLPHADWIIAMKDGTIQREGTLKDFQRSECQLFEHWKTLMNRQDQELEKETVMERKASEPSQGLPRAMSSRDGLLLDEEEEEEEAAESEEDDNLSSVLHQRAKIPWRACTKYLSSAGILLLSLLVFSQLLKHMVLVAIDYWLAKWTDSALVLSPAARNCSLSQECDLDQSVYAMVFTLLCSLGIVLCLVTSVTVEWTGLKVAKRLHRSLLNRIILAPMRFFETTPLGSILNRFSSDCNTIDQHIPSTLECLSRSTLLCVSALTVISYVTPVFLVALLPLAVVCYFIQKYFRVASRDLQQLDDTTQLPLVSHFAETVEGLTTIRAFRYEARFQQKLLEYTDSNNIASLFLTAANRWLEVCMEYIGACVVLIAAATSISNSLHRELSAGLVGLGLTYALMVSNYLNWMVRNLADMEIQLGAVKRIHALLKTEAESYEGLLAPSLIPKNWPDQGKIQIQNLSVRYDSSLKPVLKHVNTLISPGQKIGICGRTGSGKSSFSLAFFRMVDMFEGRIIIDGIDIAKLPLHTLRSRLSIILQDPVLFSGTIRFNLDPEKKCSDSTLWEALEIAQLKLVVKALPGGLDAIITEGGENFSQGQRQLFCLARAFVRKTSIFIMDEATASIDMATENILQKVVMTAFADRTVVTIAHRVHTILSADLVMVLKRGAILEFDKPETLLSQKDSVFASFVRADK

With `COc1ccc(CN2CCNCC2)c(OC)c1OC` [TMZ, trimetazidine] the “cardiac fibrosis (fibrotic area to whole heart tissue area)” value (TAC mice [1]) was 7.6±1%, the CF20 [2] was 2.13 mL/min and 1.7 mL/min and 2.18 mL/min and 3.83 mL/min and 1.72 mL/min and 2.4 mL/min and 2.14 mL/min and 2.03 mL/min and the CF20 ([2]; mean) was 2.27 mL/min. The CF170 [2] was 0.0516 mL/min and 0.1 mL/min and 0.0778 mL/min and 0.129 mL/min and 0.0898 mL/min and 0.0656 mL/min and 0.0556 mL/min and 0.13 mL/min, the CF170 ([2]; mean) was 0.0874 mL/min and the CF170/CF20 [2] was 2.42E+01 μl/ml and 5.87E+01 μl/ml and 3.57E+01 μl/ml and 3.37E+01 μl/ml and 5.21E+01 μl/ml and 2.73E+01 μl/ml and 2.60E+01 μl/ml and 6.39E+01 μl/ml. The CF170/CF20 ([2]; mean) was 4.02E+01 μl/ml, the “infarct size after IR (in words)” value [3, 19] was “decreased infarct size” and the IS/LV ([3]; individual isolated hearts after ischemia-reperfusion) was 58% and 49% (2×) and 44% and 71% and 64% and 68% and 60% and 43% and 51%. The “IS/LV Mean” value ([3]; mean of 10 hearts of the group) was 56%, the “+dp/dtm” value (TAC mice [4]) was 5157±615 mm Hg/sec and the “left ventricular developed pressure (LVDP)” value (TAC mice [4]) was 137±10 mm Hg. It also gave an LV mass (TAC mice [5]; 3-weeks after TAC) of 153 ± 8 mg, an IVRT (TAC mice [5]; 6-weeks after TAC) of 36 ± 1 ms and an LV mass (TAC mice [5]; 6-weeks after TAC) of 176 ± 15 mg. The “cardiac remodeling in TAC mice (in words)” value (“cardiac remodeling” below) (TAC mice [6]; [20]) was “effectively inhibited cardiac remodeling”, the cardiac mass (TAC mice [6]; TAC mice) was 224 ± 12 mg and the “left ventricular developed pressure (LVDP), Mean” value ([7]; T20 (20 minutes)) was 55.86. For the same molecule, the “left ventricular developed pressure (LVDP), Mean” value ([7]; T170 (170 minutes, after IR)) was 48.91, the “cardiac function after IR (in words)” value [7, 19] was “prevented a decline in cardiac function” and the HR ([7]; after 2h reperfusion) was 1.18E+02 and 1.19E+02 and 1.01E+02 and 1.51E+02 and 6.70E+01 and 9.22E+01 and 2.22E+02 and 1.70E+02 and 1.16E+02 and 2.38E+02. The LVDP ([7]; after 2h reperfusion) was 2.14E+01 and 4.34E+01 and 5.22E+01 and 2.97E+01 and 4.84E+01 and 4.67E+01 and 4.10E+01 and 7.65E+01 and 5.53E+01 and 7.43E+01, the LVDPxHR ([7]; after 2h reperfusion) was 2.52E+03 and 5.15E+03 and 5.28E+03 and 4.49E+03 and 3.24E+03 and 4.31E+03 and 9.11E+03 and 1.30E+04 and 6.44E+03 and 1.77E+04 and the LVEDP ([7]; after 2h reperfusion) was 2.93E+01 and 3.31E+01 and 3.96E+01 and 1.80E+01 and 3.36E+00 and 1.87E+00 and 1.99E+01 and 3.21E+01 and 1.84E+01 and 1.77E+00. For the same molecule, the LVESP ([7]; after 2h reperfusion) was 5.07E+01 and 7.66E+01 and 9.19E+01 and 4.77E+01 and 5.18E+01 and 4.86E+01 and 6.09E+01 and 1.09E+02 and 7.38E+01 and 7.61E+01, the HR ([7]; after 2h reperfusion, mean) was 1.39E+02 and the LVDP ([7]; after 2h reperfusion, mean) was 4.89E+01. The LVDPxHR ([7]; after 2h reperfusion, mean) was 6.82E+03, the LVEDP ([7]; after 2h reperfusion, mean) was 1.97E+01 and the LVESP ([7]; after 2h reperfusion, mean) was 6.86E+01. The LVESP ([7]; pre-ischemia, TMZ 20 μM, TNF 2 μM each, TNS 20 μM each) was 7.58E+01 and 8.44E+01 and 7.15E+01 and 5.47E+01 and 6.87E+01 and 4.27E+01 and 3.30E+01 (2×) and 6.60E+01 and 7.38E+01, the LVESP ([7]; pre-ischemia, TMZ 20 μM, TNF 2 μM each, TNS 20 μM each, mean) was 6.03E+01 and the HR ([7]; pre-ischemia) was 2.63E+02 and 2.93E+02 and 1.66E+02 and 3.35E+02 and 3.58E+02 and 3.33E+02 and 3.48E+02 and 3.21E+02 and 2.67E+02 and 3.32E+02. The LVDP ([7]; pre-ischemia) was 6.93E+01 and 7.90E+01 and 6.48E+01 and 5.30E+01 and 6.51E+01 and 3.80E+01 and 2.82E+01 and 3.15E+01 and 5.87E+01 and 7.11E+01, the LVDPxHR ([7]; pre-ischemia) was 1.83E+04 and 2.31E+04 and 1.08E+04 and 1.77E+04 and 2.33E+04 and 1.26E+04 and 9.82E+03 and 1.01E+04 and 1.57E+04 and 2.36E+04 and the LVEDP ([7]; pre-ischemia) was 6.53E+00 and 5.43E+00 and 6.76E+00 and 1.74E+00 and 3.58E+00 and 4.71E+00 and 4.77E+00 and 1.46E+00 and 7.25E+00 and 2.70E+00. For the same molecule, the HR ([7]; pre-ischemia, mean) was 3.02E+02, the LVDP ([7]; pre-ischemia, mean) was 5.59E+01 and the LVDPxHR ([7]; pre-ischemia, mean) was 1.68E+04. It also gave an LVEDP ([7]; pre-ischemia, mean) of 4.49E+00.
In the case of `O=C(O)c1cccnc1` [NA, nicotinic acid, reference compound], the “cardiac fibrosis (fibrotic area to whole heart tissue area)” value (TAC mice [1]) is reported as 8.2±1%, the “left ventricular developed pressure (LVDP)” value (TAC mice [4]) is reported as 141±20 mm Hg and the IVRT (TAC mice [5]; 6-weeks after TAC) is reported as 29 ± 2 ms. For the same molecule, the “IVSd (in words)” value (TAC mice [5]; TAC mice, NA 2.4 mg/kg/day) was “decreased IVSd”, the “LV mass (in words)” value (TAC mice [5]; TAC mice, NA 2.4 mg/kg/day) was “no effect on LV mass” and the “cardiac remodeling” value (TAC mice [6]; [20]) was “no significant effect on cardiac remodeling”.
Molecule `COc1ccc(CN2CCN(CCO)CC2)c(OC)c1OC` [CV-8814, 2-(4-(2,3,4-trimethoxybenzyl)piperazin-1-yl)ethan-1-ol] has an Inhibition [8] of less than 50%, an Inhibition (Phosphodiesterase PDE3) of less than 50% and an Inhibition (Nicotinic Acetylcholine) of less than 50%. The Inhibition (Glutamate, AMPA) was less than 50%, the Inhibition [9] was less than 50% and the Inhibition (Glutamate, NMDA, Agonism) was less than 50%. For the same molecule, the Inhibition (Transporter, GABA) was less than 50%, the Inhibition [10] was less than 50% and the Inhibition (Phosphodiesterase PDE4) was less than 50%. The inhibition at 10 µM (Potassium Channel [KATP]) was less than 50%, the “+dp/dtm” value (TAC mice [4]) was 4572±268 mm Hg/sec and the “left ventricular developed pressure (LVDP)” value (TAC mice [4]) was 123±8 mm Hg. The Inhibition (Transporter, Adenosine) was less than 50%, the “EF (in words)” value (TAC mice [5]; 3-weeks after TAC) was “significantly increased” and the IVRT (TAC mice [5]; 3-weeks after TAC) was 33 ± 1 ms. For the same molecule, the IVSd (TAC mice [5]; 3-weeks after TAC) was 1.27±0.02 mm, the LV mass (TAC mice [5]; 3-weeks after TAC) was 152 ± 9 mg and the “left ventricular FS” value (TAC mice [5]; 3-weeks after TAC, CV-8814 7.5, CV-8972 10 mg/kg/day) was 46%±2%. The IVRT (TAC mice [5]; 6-weeks after TAC) was 28 ± 2 ms, the IVSd (TAC mice [5]; 6-weeks after TAC) was 1.26±0.04 mm and the “left ventricular FS” value (TAC mice [5]; 6-weeks after TAC (end of the experiment)) was 44%±3%. For the same molecule, the “cardiac functions in TAC mice (in words)” value (TAC mice [5]; conclusion, 6 weeks treatment) was “improved cardiac functions”, the “EF (in words)” value (TAC mice [5]; to the end of the study (6 weeks)) was “protective effect was sustained to the end of the study” and the Inhibition [11] was less than 50%. For the same molecule, the Inhibition [12] was less than 50%, the Inhibition [13] was less than 50% and the “cardiac remodeling” value (TAC mice [6]; [20]) was “effectively inhibited cardiac remodeling”. The cardiac mass (TAC mice [6]; TAC mice) was 227 ± 12 mg, the “heart weight to body weight ratio” value (TAC mice [6]; TAC mice, TMZ 6, NA 2.4, CV-8814 7.5, CV-8972 10 mg/kg/day, subcutaneous osmotic minipump) was 7.6 ± 0.4 mg/g and the Inhibition [14] was less than 50%. For the same molecule, the Inhibition [15] was less than 50%, the Inhibition [16] was less than 50% and the Inhibition (Sodium Channel, Site 2) was less than 50%. For the same molecule, the Inhibition (Glutamate, Kainate) was less than 50%, the Inhibition [17] was less than 50% and the Inhibition [18] was less than 50%.
